{
  "source": "patent US7291337B2",
  "about": "“Peptide having an affinity for gp120” (Aspion Co., Ltd., priority 2000, dated 2007)",
  "key": {"[1]": {"test_system": "serum of hepatitis C or B patients, laboratory strain and freshly isolated strain, virus lysate conjugated colloidal gold", "test": "Specificity test with peptide conjugated latex beads against viruses (Table 17)", "assay_type": "binding", "from_the_text": "The virus that was in use in this enforcement example was serum, laboratory strain and a freshly isolated strain that was gathered from patients of hepatitis C or B at final stage. Then, we used virus lysate that conjugated colloidal gold as previously."}, "[2]": {"target": "HIV-1-gp120 (Immuno Diagnosis Co.), horseradish peroxidase labeled and enzyme unlabeled (HIV-1)", "test": "Scatchard plot; HRP-labeled and unlabeled gp120 added to peptide carrier"}, "[3]": {"target": "gp120 (Human immunodeficiency virus type 1 group M subtype B, UniProt P03375)", "details": "peptide conjugated latex beads; for Agglutinin test, Colloidal gold conjugated gp120: protein contents 1 μg/ml; for Agglutinin test, gp120 protein: unlabelled gp120, contents 1 μg/ml"}, "[4]": {"target": "HIV-1 kk-1 (virus; gp120 on it) (HIV-1 kk-1)", "test": "column absorption of KK-1 virus in human serum; p24 antigen ELISA"}, "[5]": {"target": "HIV-1 kk-1 (virus; gp120 on it) (HIV-1 kk-1)", "test": "column absorption of KK-1 virus in human serum; p24 antigen ELISA of lysed bound virus (starting material 2,350)"}, "[6]": {"test_system": "HTLV-IIIB (laboratory strain)", "test": "Investigation of neutralizing activity of HIV-1 (CPE in MT-4 cells), HTLV-IIIB", "assay_type": "cell-based", "details": "content to inhibit infection (CPE), 6 days, NE = no effect", "from_the_text": "(§1) Then, we used AZT as a positive control."}, "[7]": {"test_system": "KK-1 (freshly isolated HIV)", "test": "Investigation of neutralizing activity of HIV-1 (CPE in MT-4 cells), KK-1", "assay_type": "cell-based", "details": "content to inhibit infection (CPE), 6 days, NE = no effect", "from_the_text": "as §1"}, "[8]": {"details": "Sample/Virus No. 1: HIV-1 IIIB, 1.0 × 10^5 TCID50"}, "[9]": {"details": "Sample/Virus No. 2: HIV-1 Lav 1, 1.0 × 10^5 TCID50"}, "[10]": {"details": "Sample/Virus No. 3: HIV-1 kk-1, 1.0 × 10^4.5 TCID50"}, "[11]": {"details": "Sample/Virus No. 4: HIV-2 Lav2, 1.0 × 10^6 TCID50"}, "[12]": {"details": "Sample/Virus No. 5: Serum of HCV patients, titer indistinct"}, "[13]": {"details": "Sample/Virus No. 6: Serum of HBV patients, titer indistinct"}, "[14]": {"details": "Sample/Virus No. 7: Hepatitis B surface antigen(HbsAg), 1.6 × 10^5 units"}, "[15]": {"details": "Sample/Virus No. 8: Valaricella Zoster valirus, 9.5 × 10^5 units"}, "[16]": {"details": "Sample/Virus No. 9: Argubella Zoster valirus (VZV), 4.9 × 10^5 units"}, "[17]": {"details": "Sample/Virus No. 10: HTLV-1 virul lysate, 1.1 × 10^5 units"}, "[18]": {"details": "Sample/Virus No. 11: human cytomegalovirus (HCMV), 5.5 × 10^5 units"}, "[19]": {"details": "Sample/Virus No. 12: Epstein-Barr virus(EB virus), 9.9 × 10^5 units"}},
  "note": "pKd: −log10 of the molar value.",
  "data": [
    {"substance": "Table 3 No. 6 (WWKAA)", "values": [
      {"measurement": "Presence of agglutinin", "setting": "[1]; [8]", "result": "+"},
      {"measurement": "Presence of agglutinin", "setting": "[1]; [9]", "result": "+"},
      {"measurement": "Presence of agglutinin", "setting": "[1]; [10]", "result": "+"},
      {"measurement": "Presence of agglutinin", "setting": "[1]; [11]", "result": "−"},
      {"measurement": "Presence of agglutinin", "setting": "[1]; [12]", "result": "−"},
      {"measurement": "Presence of agglutinin", "setting": "[1]; [13]", "result": "−"},
      {"measurement": "Presence of agglutinin", "setting": "[1]; [14]", "result": "−"},
      {"measurement": "Presence of agglutinin", "setting": "[1]; [15]", "result": "−"},
      {"measurement": "Presence of agglutinin", "setting": "[1]; [16]", "result": "−"},
      {"measurement": "Presence of agglutinin", "setting": "[1]; [17]", "result": "−"},
      {"measurement": "Presence of agglutinin", "setting": "[1]; [18]", "result": "−"},
      {"measurement": "Presence of agglutinin", "setting": "[1]; [19]", "result": "−"}
    ]},
    {"substance": "Table 1 No. 1 (DVKAG)", "values": [
      {"measurement": "Presence of agglutinin", "setting": "[1]; [8]", "result": "+"},
      {"measurement": "Presence of agglutinin", "setting": "[1]; [9]", "result": "+"},
      {"measurement": "Presence of agglutinin", "setting": "[1]; [10]", "result": "+"},
      {"measurement": "Presence of agglutinin", "setting": "[1]; [11]", "result": "−"},
      {"measurement": "Presence of agglutinin", "setting": "[1]; [12]", "result": "−"},
      {"measurement": "Presence of agglutinin", "setting": "[1]; [13]", "result": "−"},
      {"measurement": "Presence of agglutinin", "setting": "[1]; [14]", "result": "−"},
      {"measurement": "Presence of agglutinin", "setting": "[1]; [15]", "result": "−"},
      {"measurement": "Presence of agglutinin", "setting": "[1]; [16]", "result": "−"},
      {"measurement": "Presence of agglutinin", "setting": "[1]; [17]", "result": "−"},
      {"measurement": "Presence of agglutinin", "setting": "[1]; [18]", "result": "−"},
      {"measurement": "Presence of agglutinin", "setting": "[1]; [19]", "result": "−"}
    ]},
    {"substance": "No. 1 peptide of Table 1 (Asp-Val-Lys-Ala-Gly) bound to Sephadex 6MB", "values": [
      {"measurement": "pKd", "setting": "[2]", "result": 9.67}
    ]},
    {"substance": "Trp-Trp-Lys-Ala-Ala [No. 6 in Table 3]", "values": [
      {"measurement": "Agglutinin test, Colloidal gold conjugated gp120", "setting": "[3]", "result": "Presence"},
      {"measurement": "Agglutinin test, gp120 protein", "setting": "[3]", "result": "Absence"}
    ]},
    {"substance": "No. 12 peptide of Table 3 (Tyr-Tyr-Lys-Ala-Ala) bound to cellulose type carrier", "values": [
      {"measurement": "percent of supplied virus absorbed", "setting": "[4]", "result": "< 10", "unit": "%"},
      {"measurement": "p24(S/CO), fraction of column absorption", "setting": "[5]", "result": 205, "unit": "S/CO"}
    ]},
    {"substance": "No. 12 peptide of Table 3 (Tyr-Tyr-Lys-Ala-Ala) bound to Sephadex 4B", "values": [
      {"measurement": "pKd", "setting": "[2]", "result": 9.30}
    ]},
    {"substance": "Phe-Arg-Lys-Ala-Ala (FRKAA; printed: Phe-Arg-Lys-Ala-Ala) [No. 8 in Table 3]", "values": [
      {"measurement": "Anti-HIV neutralizing activity (μg/ml) HTLV-IIIB", "setting": "[6]", "result": 125, "unit": "µg/mL"},
      {"measurement": "Anti-HIV neutralizing activity (μg/ml) KK-1", "setting": "[7]", "result": 125, "unit": "µg/mL"}
    ]},
    {"substance": "Asp-Val-Lys-Ala-Gly [No. 1 in Table 1]", "values": [
      {"measurement": "Agglutinin test, Colloidal gold conjugated gp120", "setting": "[3]", "result": "Presence"},
      {"measurement": "Agglutinin test, gp120 protein", "setting": "[3]", "result": "Absence"}
    ]}
  ]
}
